Legend:
bedstraw = experiment: Test B pre/postemergence bedstraw; format: in vivo, Galium aparine
In short: (§1)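 Herbicidal effect was estimated by eye on a ten-point control scale after plants spent twelve to sixteen days in a greenhouse following soil or foliar treatment. Foliar sprays targeted plants at one to four leaves; all doses were formulated in a non-phytotoxic solvent with surfactant.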

blackgrass = experiment: Test B pre/postemergence blackgrass; format: in vivo, Alopecurus myosuroides
In short: as §1

surinam grass = experiment: Test B pre/postemergence surinam grass; format: in vivo, Brachiaria decumbens
In short: as §1

cocklebur = experiment: Test B pre/postemergence cocklebur; format: in vivo, Xanthium strumarium
In short: as §1

crabgrass = experiment: Test B pre/postemergence crabgrass; format: in vivo, Digitaria sanguinalis
In short: as §1

giant foxtail = experiment: Test B pre/postemergence giant foxtail; format: in vivo, Setaria faberii
In short: as §1

morningglory = experiment: Test B pre/postemergence morningglory; format: in vivo, Ipomoea hederacea
In short: as §1

pigweed = experiment: Test B pre/postemergence pigweed; format: in vivo, Amaranthus retroflexus
In short: as §1

soybean = experiment: Test B pre/postemergence soybean; format: in vivo, Glycine max
In short: as §1

velvetleaf = experiment: Test B pre/postemergence velvetleaf; format: in vivo, Abutilon theophrasti
In short: as §1

wheat = experiment: Test B pre/postemergence wheat; format: in vivo, Triticum aestivum
In short: as §1

wild oat = experiment: Test B pre/postemergence wild oat; format: in vivo, Avena fatua
In short: as §1

purple nutsedge = experiment: Test B pre/postemergence purple nutsedge; format: in vivo, Cyperus rotundus
In short: as §1

rice = experiment: Test B flood test rice; format: in vivo, Oryza sativa
In short: (§2)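 Plants were grown to the 2-leaf stage before treatment with test chemical, then held in a greenhouse for twelve to sixteen days. Injury was visually rated against untreated controls on a 0–10 scale, where 0 is no effect and 10 is complete control.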

smallflower flatsedge = experiment: Test B flood test smallflower flatsedge; format: in vivo, Cyperus difformis
In short: as §2

bamyardgrass = experiment: Test B flood test barnyardgrass; format: in vivo, Echinochloa crus-galli
In short: as §2

[1] = Postemergence, Rate 62 g/ha, scale 0 to 10, 0 is no effect, 10 is complete control
[2] = Postemergence, Rate 250 g/ha, scale 0 to 10, 0 no effect, 10 complete control
[3] = Preemergence, Rate 62 g/ha, scale 0 to 10, 0 is no effect, 10 is complete control
[4] = Preemergence, Rate 125 g/ha, scale 0 to 10 (0 no effect, 10 complete control)
[5] = Preemergence, Rate 250 g/ha, scale of 0 to 10 where 0 is no effect and 10 is complete control
[6] = Preemergence, Rate 500 g/ha, scale 0 (no effect) to 10 (complete control)
[7] = Rate 125 g/ha, Postemergence, scale 0 to 10, 0 no effect, 10 complete control
[8] = Rate 500 g/ha, Postemergence, 0 to 10 scale (0 no effect, 10 complete control)
[9] = Rate 125 g/ha, Postemergence section (flood test species), scale 0 to 10, 0 no effect, 10 complete control
[10] = Rate 500 g/ha, Postemergence section of Table B, 0 to 10 scale (0 no effect, 10 complete control)
[11] = flood test, listed under Postemergence, Rate 250 g/ha, scale 0 to 10, 0 no effect, 10 complete control

CC(C)N(C(=O)n1oc(=O)n(-c2cc(Cl)ccc2Cl)c1=O)c1ccc(F)cc1 [Compound 16]
Bedstraw plant response rating (bedstraw; [1]): 0
Bedstraw plant response rating (bedstraw; [2]): 0
Plant response rating, Bedstraw (bedstraw; [3]): 0
Plant response rating, Bedstraw (bedstraw; [4]): 0
Plant response rating, Bedstraw (bedstraw; [5]): 0
Bedstraw plant response rating (bedstraw; [6]): 0
Bedstraw plant response rating (bedstraw; [7]): 0
Bedstraw plant response rating (bedstraw; [8]): 0
Blackgrass plant response rating (blackgrass; [1]): 0
Blackgrass plant response rating (blackgrass; [2]): 0
Plant response rating, Blackgrass (blackgrass; [3]): 0
Plant response rating, Blackgrass (blackgrass; [4]): 0
Plant response rating, Blackgrass (blackgrass; [5]): 0
Blackgrass plant response rating (blackgrass; [6]): 0
Blackgrass plant response rating (blackgrass; [7]): 0
Blackgrass plant response rating (blackgrass; [8]): 2
B. signalgrass plant response rating (surinam grass; [1]): 0
B. signalgrass plant response rating (surinam grass; [2]): 0
Plant response rating, B. signalgrass (surinam grass; [3]): 0
Plant response rating, B. signalgrass (surinam grass; [4]): 0
Plant response rating, B. signalgrass (surinam grass; [5]): 0
B. signalgrass plant response rating (surinam grass; [6]): 0
B. signalgrass plant response rating (surinam grass; [7]): 0
B. signalgrass plant response rating (surinam grass; [8]): 0
Cocklebur plant response rating (cocklebur; [1]): 0
Cocklebur plant response rating (cocklebur; [2]): 0
Plant response rating, Cocklebur (cocklebur; [3]): 0
Plant response rating, Cocklebur (cocklebur; [4]): 0
Plant response rating, Cocklebur (cocklebur; [5]): 0
Cocklebur plant response rating (cocklebur; [6]): 0
Cocklebur plant response rating (cocklebur; [7]): 0
Cocklebur plant response rating (cocklebur; [8]): 0
Crabgrass plant response rating (crabgrass; [1]): 0
Crabgrass plant response rating (crabgrass; [2]): 0
Plant response rating, Crabgrass (crabgrass; [3]): 0
Plant response rating, Crabgrass (crabgrass; [4]): 2
Plant response rating, Crabgrass (crabgrass; [5]): 2
Crabgrass plant response rating (crabgrass; [6]): 2
Crabgrass plant response rating (crabgrass; [7]): 0
Crabgrass plant response rating (crabgrass; [8]): 0
Giant foxtail plant response rating (giant foxtail; [1]): 0
Giant foxtail plant response rating (giant foxtail; [2]): 0
Plant response rating, Giant foxtail (giant foxtail; [3]): 0
Plant response rating, Giant foxtail (giant foxtail; [4]): 2
Plant response rating, Giant foxtail (giant foxtail; [5]): 3
Giant foxtail plant response rating (giant foxtail; [6]): 8
Giant foxtail plant response rating (giant foxtail; [7]): 0
Giant foxtail plant response rating (giant foxtail; [8]): 3
Morningglory plant response rating (morningglory; [1]): 1
Morningglory plant response rating (morningglory; [2]): 1
Plant response rating, Morningglory (morningglory; [3]): 0
Plant response rating, Morningglory (morningglory; [4]): 0
Plant response rating, Morningglory (morningglory; [5]): 0
Morningglory plant response rating (morningglory; [6]): 0
Morningglory plant response rating (morningglory; [7]): 1
Morningglory plant response rating (morningglory; [8]): 3
Redroot pigweed plant response rating (pigweed; [1]): 0
Redroot pigweed plant response rating (pigweed; [2]): 0
Plant response rating, Redroot pigweed (pigweed; [3]): 0
Plant response rating, Redroot pigweed (pigweed; [4]): 0
Plant response rating, Redroot pigweed (pigweed; [5]): 0
Redroot pigweed plant response rating (pigweed; [6]): 0
Redroot pigweed plant response rating (pigweed; [7]): 0
Redroot pigweed plant response rating (pigweed; [8]): 0
Soybean plant response rating (soybean; [1]): 1
Soybean plant response rating (soybean; [2]): 1
Plant response rating, Soybean (soybean; [3]): 0
Plant response rating, Soybean (soybean; [4]): 0
Plant response rating, Soybean (soybean; [5]): 0
Soybean plant response rating (soybean; [6]): 0
Soybean plant response rating (soybean; [7]): 1
Velvetleaf plant response rating (velvetleaf; [1]): 0
Velvetleaf plant response rating (velvetleaf; [2]): 0
Plant response rating, Velvetleaf (velvetleaf; [3]): 0
Plant response rating, Velvetleaf (velvetleaf; [4]): 0
Plant response rating, Velvetleaf (velvetleaf; [5]): 0
Velvetleaf plant response rating (velvetleaf; [6]): 0
Velvetleaf plant response rating (velvetleaf; [7]): 0
Wheat plant response rating (wheat; [1]): 0
Wheat plant response rating (wheat; [2]): 0
Plant response rating, Wheat (wheat; [3]): 0
Plant response rating, Wheat (wheat; [4]): 0
Plant response rating, Wheat (wheat; [5]): 0
Wheat plant response rating (wheat; [6]): 0
Wheat plant response rating (wheat; [7]): 0
Wild oats plant response rating (wild oat; [1]): 0
Wild oats plant response rating (wild oat; [2]): 0
Plant response rating, Wild oats (wild oat; [4]): 0
Plant response rating, Wild oats (wild oat; [5]): 0
Wild oats plant response rating (wild oat; [6]): 0
Wild oats plant response rating (wild oat; [7]): 0
Nutsedge plant response rating (purple nutsedge; [1]): 0
Nutsedge plant response rating (purple nutsedge; [2]): 0
Plant response rating, Nutsedge (purple nutsedge; [3]): 0
Plant response rating, Nutsedge (purple nutsedge; [4]): 0
Plant response rating, Nutsedge (purple nutsedge; [5]): 0
Nutsedge plant response rating (purple nutsedge; [6]): 0
Nutsedge plant response rating (purple nutsedge; [7]): 0
Nutsedge plant response rating (purple nutsedge; [8]): 0
Rice plant response rating (rice; [1]): 0
Rice plant response rating (rice; [9]): 0
Rice plant response rating (rice; [10]): 0
Rice plant response rating (rice; [11]): 0
S. Flatsedge plant response rating (smallflower flatsedge; [1]): 0
S. Flatsedge plant response rating (smallflower flatsedge; [9]): 0
S. Flatsedge plant response rating (smallflower flatsedge; [11]): 0
Barnyardgrass plant response rating (bamyardgrass; [1]): 0
Barnyardgrass plant response rating (bamyardgrass; [9]): 0
Barnyardgrass plant response rating (bamyardgrass; [10]): 0
Barnyardgrass plant response rating (bamyardgrass; [11]): 0
